Like-named read-outs stand apart in the source and are kept apart here.
Tests used:
[1] = test system: sAPPα; assay: sAPPα levels in SY5Y neuroblastoma cells (6E10 immunoreactivity, Western blot); format: cell-based; details: 1 μM and 5 μM
[2] = mice
[3] = cited from earlier work
[4] = test system: γ-secretase
Description: (§1) FIG. 11A-B. CHO cells were transfected with APPswe and LacZ (open bars) or with APPswe and hCOX-2(filled bars), as in FIG. 10A-C.
CHO cells were transfected with APPswe and LacZ (open bars) or with APPswe and hCOX-2 (filled bars), as in the preceding Section 11, and γ-secretase and Aβ42 levels were measured.

[5] = test system: Aβ40; details: CHO-APPswe cells, 0.1 micromolar, 24 hours
Description: (§2) The amount of amyloid β peptides produced was measured by an ELISA assay from BioSource (Camarillo, Calif.). Samples were diluted 1:10 in buffer (0.05% (v/v) Tween-20, 1 mM Pefabloc protease inhibitors) followed by centrifugation for 20 minutes at 4° C. Total Aβ40 or Aβ42 were measured by sandwich ELISA following the manufacturer's instructions.

[6] = test system: Aβ42; details: CHO-APPswe cells, 0.1 micromolar, 24 hours
Description: as §2

[7] = test system: PGE2; details: mice, same brain, nimesulide 1500 mg/kg of diet for three months
[8] = in vivo; details: B6SJ1, mouse, brain relative to serum, oral, 1500 mg/kg of diet, level of nimesulide in the brain relative to serum levels, mice, nimesulide 1500 mg/kg of diet for three months, brain parenchyma
[9] = test system: complement ClqB; details: in vivo; cited from earlier work
[10] = test system: Aβ40; details: CHO cells with APPswe and hCOX-2, nimesulide concentrations down to 10^−12 M
Source text: FIG. 10A-C. […] (C) Aβ42 levels in CHO cells transfected with APPswe and LacZ (open bars) or with APPswe and hCOX-2 (filled bars). Data are expressed as means±S.E.M. (percent of control LacZ transfection from three independent studies).
Using an adenovirus vector, hCOX-2 was transfected and expressed in CHO cells which had been stably transfected with APPswe (see above).

[11] = test system: Aβ42
Source text: as §1

[12] = clinical; details: human, po, 100 mg twice daily
Description: A tolerability study was performed in elderly human subjects (Aisen et al., 2002, Neurology 58(7):1050-1054).

[13] = test system: γ-secretase; details: CHO-APPswe cells, 0.1 micromolar, 24 hours
[14] = CHO-APPswe cells transfected with hCOX-2, 10^−9 molar

Row | SMILES | levels of sAPPα relative to controls (6E10 immunoreactivity) [1] | necropsy findings ([2]; nimesulide 1500 mg/kg of diet (50 mg/kg per day) for 3 months) | tolerability ([2]; nimesulide 1500 mg/kg of diet for 3 months) | tolerability, long term treatment ([3]; clinical study, up to 104 weeks) | cognitive benefit in AD patients ([3]; twelve-week clinical trial) | tolerability in AD patients ([3]; twelve-week clinical trial) | effect on hCOX-2 mediated increase of γ-secretase activity [4, 14] | additional decrease of γ-secretase levels ([4]; both hCOX-2 and LacZ-transfected CHO-APPswe cells, 10^−6 molar) | decrease of the amount of Aβ40 [5] | decrease of the amount of Aβ42 [6] | decrease of PGE2 content [7] | Kp at 3 months [8] | effect on hCOX-2 induced increase of ClqB levels in the brain [9] | effect on hCOX-2 mediated increase in Aβ40 levels [10] | effect on hCOX-2 increased Aβ42 concentration ([11]; CHO-APPswe cells transfected with hCOX-2, 10^−6 molar) | effect on hCOX-2 increased Aβ42 concentration [11, 14] | concentration at 24 weeks ([12]; brain) [µM] | concentration at 24 weeks ([12]; serum) [µM] | inhibition of γ-secretase activity [13]
1 | CS(=O)(=O)c1ccc(C2=C(c3ccccc3)C(=O)OC2)cc1 [Rofecoxib] | decreased | – | – | – | – | – | – | – | – | – | – | – | – | – | – | – | – | – | –
2 | CS(=O)(=O)Nc1ccc([N+](=O)[O-])cc1Oc1ccccc1 [nimesulide, 4-nitro-2-phenoxymethanesulfonanilide] | – | did not demonstrate any gross alterations or renal or intestinal abnormalities | well tolerated | well tolerated | no cognitive benefit was observed | well tolerated | decreased to control levels | 10-15% | 20-25% | 20-25% | approximately 50% | ~0.1 | able to block that increase | virtually nullified | decreased to essentially control levels | slightly decreased | ~1 | ~10 | approximately 40%

From patent publication US20060111447A1, “Inhibiting progressive cognitive impairment” (priority 2002, published 2006)
